The values that follow come from ChEMBL document CHEMBL5465560, “Selectivity Literature for EUbOPEN Chemogenomic Library” (2024).

The target in experiment [1] is T1, Serine/threonine-protein kinase TAO3 (Homo sapiens) (UniProt Q9H2K8).
T1 sequence (whole entry): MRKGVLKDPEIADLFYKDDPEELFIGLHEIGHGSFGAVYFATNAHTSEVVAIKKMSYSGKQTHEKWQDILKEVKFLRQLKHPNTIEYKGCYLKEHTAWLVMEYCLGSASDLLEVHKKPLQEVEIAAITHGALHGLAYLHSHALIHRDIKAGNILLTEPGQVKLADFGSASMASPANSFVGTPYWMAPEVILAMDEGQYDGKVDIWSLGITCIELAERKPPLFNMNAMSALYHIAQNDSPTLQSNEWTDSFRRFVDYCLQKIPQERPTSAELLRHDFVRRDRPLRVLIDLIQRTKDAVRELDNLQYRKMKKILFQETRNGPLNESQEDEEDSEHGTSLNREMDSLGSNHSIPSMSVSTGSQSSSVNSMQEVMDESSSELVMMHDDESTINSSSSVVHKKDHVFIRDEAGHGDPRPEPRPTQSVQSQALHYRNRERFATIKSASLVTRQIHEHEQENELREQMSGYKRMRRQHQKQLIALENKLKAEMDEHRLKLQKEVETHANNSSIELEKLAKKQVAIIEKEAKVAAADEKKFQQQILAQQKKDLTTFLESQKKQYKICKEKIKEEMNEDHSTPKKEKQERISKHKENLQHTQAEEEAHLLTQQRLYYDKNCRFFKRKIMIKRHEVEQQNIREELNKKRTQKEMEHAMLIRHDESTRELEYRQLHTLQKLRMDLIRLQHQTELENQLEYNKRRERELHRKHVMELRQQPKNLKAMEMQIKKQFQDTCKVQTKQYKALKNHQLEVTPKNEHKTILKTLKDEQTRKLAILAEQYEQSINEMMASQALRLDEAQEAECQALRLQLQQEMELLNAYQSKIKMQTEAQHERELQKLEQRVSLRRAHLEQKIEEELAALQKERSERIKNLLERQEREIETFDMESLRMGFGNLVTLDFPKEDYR
As to the kind of experiment: Selectivity interaction (Upstate Kinase Profiler service (Millipore)) EUB0000056c TAOK3. The conditions noted are these: at 1 µM.

In experiment [2] the target is Protein kinase C delta type (Homo sapiens) (UniProt Q05655). Kind of experiment: Selectivity interaction (KinomeScan (DiscoverX)) EUB0000092b PRKCD. To be noted: at 10 µM.
Protein kinase C delta type (Homo sapiens), sequence (Q05655 whole entry, looked up): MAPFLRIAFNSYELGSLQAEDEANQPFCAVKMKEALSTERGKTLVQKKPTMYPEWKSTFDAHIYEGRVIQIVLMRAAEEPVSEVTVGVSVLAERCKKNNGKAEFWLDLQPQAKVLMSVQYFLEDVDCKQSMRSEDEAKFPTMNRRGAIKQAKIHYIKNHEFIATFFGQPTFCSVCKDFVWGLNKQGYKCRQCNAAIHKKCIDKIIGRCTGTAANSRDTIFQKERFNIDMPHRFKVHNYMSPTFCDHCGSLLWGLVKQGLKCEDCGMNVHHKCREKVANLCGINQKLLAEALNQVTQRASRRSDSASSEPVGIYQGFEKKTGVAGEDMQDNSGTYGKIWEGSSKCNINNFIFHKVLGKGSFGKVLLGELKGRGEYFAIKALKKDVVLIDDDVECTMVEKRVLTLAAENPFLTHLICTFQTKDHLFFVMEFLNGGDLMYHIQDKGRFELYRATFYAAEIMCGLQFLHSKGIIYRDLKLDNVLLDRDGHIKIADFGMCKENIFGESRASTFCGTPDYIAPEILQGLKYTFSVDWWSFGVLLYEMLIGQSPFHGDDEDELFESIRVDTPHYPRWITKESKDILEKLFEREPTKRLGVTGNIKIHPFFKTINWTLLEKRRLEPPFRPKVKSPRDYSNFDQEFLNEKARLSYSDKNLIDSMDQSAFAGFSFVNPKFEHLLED
The target in experiment [3] is T2, Mitogen-activated protein kinase 13 (Homo sapiens) (UniProt O15264).
T2 sequence (whole entry): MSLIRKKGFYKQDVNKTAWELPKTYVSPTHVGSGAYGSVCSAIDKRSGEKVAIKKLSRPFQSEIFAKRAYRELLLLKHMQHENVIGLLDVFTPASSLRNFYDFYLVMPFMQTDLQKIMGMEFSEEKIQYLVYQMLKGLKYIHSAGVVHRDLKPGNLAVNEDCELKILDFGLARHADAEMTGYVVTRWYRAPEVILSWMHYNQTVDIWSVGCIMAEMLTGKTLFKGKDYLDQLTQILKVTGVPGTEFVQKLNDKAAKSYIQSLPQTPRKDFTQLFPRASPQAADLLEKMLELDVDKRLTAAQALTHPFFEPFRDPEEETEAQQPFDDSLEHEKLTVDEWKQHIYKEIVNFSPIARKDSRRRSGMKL
Kind of experiment: Selectivity interaction (KinomeScan (DiscoverX)) EUB0000655a MAPK13. The conditions noted are these: at 10 µM.

Experiment [4] concerns the target Serine/threonine-protein kinase Nek7 (Homo sapiens) (UniProt Q8TDX7). As to the kind of experiment: Selectivity interaction (KinomeScan (DiscoverX)) EUB0000045b NEK7.
Experiment [5] concerns the target [Pyruvate dehydrogenase (acetyl-transferring)] kinase isozyme 1, mitochondrial (Homo sapiens, UniProt Q15118). Kind of experiment: Selectivity interaction (Kinase panel (Z-LYTE Assay)) EUB0001632a PDK1. The conditions noted are these: at 10 µM.
Experiment [6] deals with T3, Serine/threonine-protein kinase TBK1 (Homo sapiens) (UniProt Q9UHD2).
T3 sequence (whole entry): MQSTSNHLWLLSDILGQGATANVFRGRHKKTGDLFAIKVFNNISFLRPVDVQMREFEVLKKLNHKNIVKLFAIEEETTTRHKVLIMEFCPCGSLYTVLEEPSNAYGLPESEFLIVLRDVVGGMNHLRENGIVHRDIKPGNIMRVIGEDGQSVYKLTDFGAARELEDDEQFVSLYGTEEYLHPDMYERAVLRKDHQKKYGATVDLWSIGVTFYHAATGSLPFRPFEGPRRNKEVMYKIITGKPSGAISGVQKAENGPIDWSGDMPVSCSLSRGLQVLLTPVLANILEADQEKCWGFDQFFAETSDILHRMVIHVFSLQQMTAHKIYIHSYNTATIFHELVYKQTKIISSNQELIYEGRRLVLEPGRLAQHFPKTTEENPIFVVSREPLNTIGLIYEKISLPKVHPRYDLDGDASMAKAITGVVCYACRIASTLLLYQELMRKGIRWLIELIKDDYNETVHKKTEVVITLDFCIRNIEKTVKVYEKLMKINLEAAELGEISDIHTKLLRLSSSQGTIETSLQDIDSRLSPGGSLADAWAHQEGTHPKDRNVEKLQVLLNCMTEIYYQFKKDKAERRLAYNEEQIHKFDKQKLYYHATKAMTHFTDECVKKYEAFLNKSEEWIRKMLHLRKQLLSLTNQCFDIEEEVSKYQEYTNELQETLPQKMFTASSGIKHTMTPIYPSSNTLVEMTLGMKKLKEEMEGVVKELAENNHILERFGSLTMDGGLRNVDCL
As to the kind of experiment: Selectivity interaction (ActivX KiNativ screen (kinase selectivity in THP-1 cell lysates)) EUB0000639a TBK1. In kind it is subcellular. To be noted: lysate, at 5 µM.

Experiment [7] has as its target Calcium/calmodulin-dependent protein kinase type II subunit alpha (Homo sapiens, UniProt Q9UQM7). Kind of experiment: Selectivity interaction (KinomeScan (DiscoverX)) EUB0000229b CAMK2A. The conditions noted are these: at 10 µM.
In experiment [8] the target is Phosphatidylinositol 4-phosphate 5-kinase type-1 gamma (Homo sapiens) (UniProt O60331). Kind of experiment: Selectivity interaction (KinomeScan (DiscoverX)) EUB0000595a PIP5K1C. The conditions noted are these: at 10 µM.
Phosphatidylinositol 4-phosphate 5-kinase type-1 gamma (Homo sapiens), sequence (O60331 whole entry): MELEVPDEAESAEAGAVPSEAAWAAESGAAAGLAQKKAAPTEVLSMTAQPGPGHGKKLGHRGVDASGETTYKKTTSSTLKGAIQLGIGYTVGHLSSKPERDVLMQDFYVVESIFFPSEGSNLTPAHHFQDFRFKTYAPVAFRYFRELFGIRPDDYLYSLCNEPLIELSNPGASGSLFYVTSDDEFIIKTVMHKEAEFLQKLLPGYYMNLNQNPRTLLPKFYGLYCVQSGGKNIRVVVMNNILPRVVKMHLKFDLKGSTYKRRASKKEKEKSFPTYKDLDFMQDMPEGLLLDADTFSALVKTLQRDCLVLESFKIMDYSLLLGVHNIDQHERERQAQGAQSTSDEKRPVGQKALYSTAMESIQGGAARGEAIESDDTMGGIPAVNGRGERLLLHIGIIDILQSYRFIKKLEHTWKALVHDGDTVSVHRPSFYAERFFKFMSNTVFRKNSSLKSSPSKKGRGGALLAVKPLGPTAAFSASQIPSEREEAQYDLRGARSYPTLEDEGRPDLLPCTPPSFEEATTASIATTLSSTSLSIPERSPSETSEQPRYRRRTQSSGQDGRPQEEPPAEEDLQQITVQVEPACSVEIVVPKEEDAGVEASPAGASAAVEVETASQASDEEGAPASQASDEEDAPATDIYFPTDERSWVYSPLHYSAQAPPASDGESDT
Experiment [9] concerns the target T4, Dual specificity mitogen-activated protein kinase kinase 4 (Homo sapiens) (UniProt P45985).
T4 sequence (whole entry): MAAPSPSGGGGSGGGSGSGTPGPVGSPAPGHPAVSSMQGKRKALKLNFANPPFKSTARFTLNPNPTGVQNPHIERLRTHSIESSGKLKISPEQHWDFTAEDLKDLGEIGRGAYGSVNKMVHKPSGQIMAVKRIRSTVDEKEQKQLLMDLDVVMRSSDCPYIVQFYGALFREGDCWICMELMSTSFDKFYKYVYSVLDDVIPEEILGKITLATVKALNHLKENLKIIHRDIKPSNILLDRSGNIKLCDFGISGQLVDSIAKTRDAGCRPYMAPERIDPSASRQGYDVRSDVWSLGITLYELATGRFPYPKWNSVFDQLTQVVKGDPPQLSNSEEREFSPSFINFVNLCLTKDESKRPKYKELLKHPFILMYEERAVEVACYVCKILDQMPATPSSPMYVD
As to the kind of experiment: Selectivity interaction (Kinase panel (KiNativ target engagement assay in Jurkat cells)) EUB0001635a MAP2K4. In kind it is cell-based. To be noted: at 1 µM.

Serine/threonine-protein kinase Nek7 (Homo sapiens), sequence (Q8TDX7 whole entry, looked up): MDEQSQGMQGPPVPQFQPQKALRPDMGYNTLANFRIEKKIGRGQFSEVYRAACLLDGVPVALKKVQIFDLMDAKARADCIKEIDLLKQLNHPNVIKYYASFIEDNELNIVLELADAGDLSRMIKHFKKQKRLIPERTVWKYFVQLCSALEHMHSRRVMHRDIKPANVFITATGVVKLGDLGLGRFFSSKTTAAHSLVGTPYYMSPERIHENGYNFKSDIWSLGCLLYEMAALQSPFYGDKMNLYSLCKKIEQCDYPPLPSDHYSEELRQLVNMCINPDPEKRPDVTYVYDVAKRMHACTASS
Calcium/calmodulin-dependent protein kinase type II subunit alpha, sequence (Q9UQM7 whole entry): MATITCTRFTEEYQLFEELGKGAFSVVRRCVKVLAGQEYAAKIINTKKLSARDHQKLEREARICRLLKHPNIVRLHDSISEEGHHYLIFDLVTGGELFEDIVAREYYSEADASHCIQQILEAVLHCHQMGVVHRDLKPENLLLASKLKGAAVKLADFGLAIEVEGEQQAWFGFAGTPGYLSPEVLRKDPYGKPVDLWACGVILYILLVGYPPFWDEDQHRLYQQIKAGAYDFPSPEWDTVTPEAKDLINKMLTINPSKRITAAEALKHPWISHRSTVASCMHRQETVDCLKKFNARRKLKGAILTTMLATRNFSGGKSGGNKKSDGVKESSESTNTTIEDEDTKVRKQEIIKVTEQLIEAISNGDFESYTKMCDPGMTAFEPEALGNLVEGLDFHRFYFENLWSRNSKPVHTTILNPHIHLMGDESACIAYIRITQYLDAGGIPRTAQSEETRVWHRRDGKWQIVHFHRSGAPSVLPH

In turn, `Cc1ccc(-c2ccc3c(ccc4sc5c(c43)NC[C@@H](C)NC5=O)n2)cn1` registered a % of inhibition in experiment [1] of 19%.

On to `CCC(=O)N1CCN(c2ccc(-n3c(=O)ccc4cnc5ccc(-c6cnc7ccccc7c6)cc5c43)cc2C(F)(F)F)CC1`, for which the % of control in [2] came to 82%.

Regarding `CN(C)CCOc1ccc(-c2nc(-c3ccncc3)c(-c3ccc4c(c3)CC/C4=N\O)[nH]2)cc1`, the % of control in experiment [3] is 87%.

As for `C=CC(=O)Nc1cc(-n2c(=O)ccc3cnc4ccc(-c5ccc(NS(C)(=O)=O)cc5)cc4c32)ccc1C`, the values for the % of control in experiment [4] (at 1 µM) and in [4] (at 10 µM) were 100% and 71%, respectively.

As for `Cn1cc(-n2cnc3c(NCc4nc5cc(Cl)c(Cl)cc5[nH]4)nc(N4CCOCC4)nc32)cn1`, the % of control in [5] was -4.24%.

Consider `CC[C@@H]1[C@H](F)C(=O)N[C@@H]1COc1nccc2cc(C(N)=O)c(OC)cc12` [ZIMLOVISERTIB], for which the % of inhibition in experiment [6] amounted to 23.9%.

For the molecule `COc1cc(N(C)c2ccnc3ccc(C(F)(F)F)cc23)cc(OC)c1OC`, the % binding in experiment [7] amounted to 77%.

Turning to `COCC(=O)NC/C=C/c1ccc2ncnc(Nc3ccc(Oc4ccc(C)nc4)c(C)c3)c2c1` [CP-724714], the % of control in experiment [8] is 93%.

The molecule `C=CC(=O)Nc1ccc(C(=O)Nc2[nH]nc3c2CN(C(=O)N[C@H](CN(C)C)c2ccccc2)C3(C)C)cc1` returned a % of engagement in experiment [9] of 3.9%.
